Laboratory results published in publication PMC6282105 (Molecular Pharmaceutics, 2018).

Key:
[1] = Stability of the building block toward SPPS reagents; assay type: physicochemical; details: SPPS conditions
nitroreductase (NTR) = biological target: T1, nitroreductase (NTR) (Escherichia coli, UniProt P38489); experiment: NTR-mediated removal of the CNBz moiety, followed by analytical HPLC; assay type: biochemical; details: 0.3 equiv NTR, NADH as cofactor, analytical HPLC (Figure S2)
T1 sequence (P38489 1-217): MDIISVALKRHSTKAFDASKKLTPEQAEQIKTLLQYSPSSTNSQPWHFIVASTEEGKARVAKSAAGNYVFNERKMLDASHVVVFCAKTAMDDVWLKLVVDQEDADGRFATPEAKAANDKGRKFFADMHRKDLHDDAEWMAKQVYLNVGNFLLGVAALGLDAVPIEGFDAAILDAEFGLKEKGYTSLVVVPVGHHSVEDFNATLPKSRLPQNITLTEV

O=C(NCCCC(NC(=O)OCC1c2ccccc2-c2ccccc21)C(=O)O)NC(=O)OCc1ccc([N+](=O)[O-])cc1 (centres unmarked) [compound 1, 14-(9H-fluoren-9-yl)-1-(4-nitrophenyl)-3,5,12-trioxo-2,13-dioxa-4,6,11-triazatetradecane-10-carboxylic acid]
stability toward 20% piperidine and TFA [1]: very stable
time to full removal of the CNBz moiety (nitroreductase (NTR)): ≤ 5 min
